Source: the NIST ThermoML archive (doi:10.1021/je049787p)
Numbers after ± are expanded uncertainties.

Assay: xn = mol fraction of the nth substance listed
Details: 101.3 kPa, Liquid; for electrical conductivity: Alternating current cell with electrodes

C=CCn1cc[n+](C)c1.[Cl-] [1-allyl-3-methylimidazolium chloride] + CCO
Details	electrical conductivity, 293.15 K [S/m]	electrical conductivity, 303.15 K [S/m]	electrical conductivity, 313.15 K [S/m]	electrical conductivity, 323.15 K [S/m]	electrical conductivity, 333.15 K [S/m]	viscosity, 293.15 K [mPa·s]	viscosity, 303.15 K [mPa·s]	viscosity, 313.15 K [mPa·s]	viscosity, 323.15 K [mPa·s]	viscosity, 333.15 K [mPa·s]
x2 = 0	0.382	0.44	0.501	0.562	0.624	66 ± 10	44.7 ± 5.9	25.3 ± 3.5	20.6 ± 2.8	16.2 ± 2.3
x2 = 0.1	0.485	0.543	0.604	0.66	0.722	54.6 ± 3	44.1 ± 5.8	24.6 ± 3.4	20 ± 2.8	16 ± 2.3
x2 = 0.2	0.627	0.682	0.74	0.801	0.859	45.7 ± 6	42.2 ± 5.5	24.1 ± 3.3	19.5 ± 2.7	15.4 ± 2.2
x2 = 0.3	0.703	0.759	0.818	0.876	0.935	39.1 ± 5.1	30.9 ± 4.1	22.6 ± 3.1	18.7 ± 2.6	15.1 ± 2.1
x2 = 0.35	0.8	0.855	0.91	0.969	1.02	30.5 ± 4.1	25.1 ± 3.4	19.4 ± 2.7	16 ± 2.2	14.4 ± 2
x2 = 0.45	0.884	0.943	0.999	1.06	1.11	26.4 ± 3.5	22.1 ± 3	20.1 ± 2.8	16.7 ± 2.3	13.1 ± 1.9
x2 = 0.5	0.952	1.01	1.06	1.11	1.17	23.2 ± 3.1	18.1 ± 2.5	15.3 ± 2.2	13.6 ± 1.9	11.2 ± 1.6
x2 = 0.55	1.03	1.09	1.14	1.2	1.25	20.4 ± 2.8	16.3 ± 2.3	14 ± 2	12.5 ± 1.8	10.1 ± 1.5

C=CCn1cc[n+](C)c1.[Cl-] [1-allyl-3-methylimidazolium chloride] + O
Details	electrical conductivity, 293.15 K [S/m]	electrical conductivity, 303.15 K [S/m]	electrical conductivity, 313.15 K [S/m]	electrical conductivity, 323.15 K [S/m]	electrical conductivity, 333.15 K [S/m]	viscosity, 293.15 K [mPa·s]	viscosity, 303.15 K [mPa·s]	viscosity, 313.15 K [mPa·s]	viscosity, 323.15 K [mPa·s]	viscosity, 333.15 K [mPa·s]
x2 = 0	0.382	0.44	0.501	0.562	0.624	66 ± 10	44.7 ± 5.9	25.3 ± 3.5	20.6 ± 2.8	16.2 ± 2.3
x2 = 0.3	0.817	0.874	0.93	0.985	1.04	51.3 ± 1.5	40.7 ± 5.3	24.1 ± 3.3	19.6 ± 2.7	15 ± 2.1
x2 = 0.45	1.11	1.17	1.23	1.28	1.33	42.7 ± 5.6	31.4 ± 4.2	22.9 ± 3.1	18.2 ± 2.5	15.1 ± 2.1
x2 = 0.59	1.36	1.42	1.47	1.53	1.58	34.4 ± 4.5	27.5 ± 3.7	22.7 ± 3.1	18.3 ± 2.5	14.9 ± 2.1
x2 = 0.65	1.55	1.61	1.66	1.72	1.77	29.1 ± 3.9	24.2 ± 3.3	20.9 ± 2.8	17.6 ± 2.4	14.3 ± 2
x2 = 0.7	1.73	1.78	1.84	1.89	1.94	26.1 ± 3.5	22 ± 3	19.5 ± 2.7	16.4 ± 2.3	13 ± 1.9
x2 = 0.75	1.84	1.89	1.95	2	2.05	22.6 ± 3.1	18.7 ± 2.6	15.4 ± 2.2	12.2 ± 1.8	10.1 ± 1.5
x2 = 0.8	1.93	1.99	2.04	2.09	2.14	19.3 ± 2.6	15.6 ± 2.2	12.7 ± 1.8	11.1 ± 1.6	9.2 ± 1.4
